Data published in US20150352114A1, “MITOTIC KINESIN Eg5 INHIBITING ANTICANCER AGENTS” (THE CLEVELAND CLINIC FOUNDATION, priority 2014, published 2015).

Test system: pCRMP2 (T514) in interphase GSCs
Assay: CRMP2 phosphorylation immunoblot
Assay type: cell-based, human
Details: interphase GSCs treated with microtubule agents
Description: FIGS. 8(A-B) illustrate that Eg5 impacts microtubule growth through the CRMP-tubulin deposition pathway; (A) 08-387 GSCs enriched in interphase were exposed to vehicle (DMSO) or ispinesib (200 nM) and harvested for whole cell lysates every two hours over a 6 hour time course. Resulting lysates were probed for CRMP2 and pCRMP2 (T514); (B) Human brain microvascular endothelial cells (HuBrMVECs) were treated with vehicle (DMSO) or ispinesib (200 nM) and harvested for whole cell lysates every three hours over a 6 hour time course. Resulting lysates were probed for CRMP2 and pCRMP2 (T514); For all immunoblots, βactin served as a loading control. Molecular weight (MW) of resulting bands is given in kilodaltons (kD).
Protein extracts were made using a 50 mM Tris pH 8.0, […] NaCl, 0.5% NP-40 lysis solution. Resulting lysates were ran on 10% SDS-PAGE gels and transferred to Immobilon-FL PVDF (Millipore Corp., Billerica, Mass.). The membranes were blocked with 5% (wt/vol) bovine serum albumin in PBS-Tween-20 (0.2% vol/vol) and probed with primary antibodies against Eg5 (mouse, 1:4000, BD Biosciences, San Jose, Calif.), Olig2 (rabbit, 1:1000, abcam, San Francisco, Calif.), GFAP (DAKO; 1:10,000, Carpinteria, Calif.), CRMP2 (mouse, 1:1000, abgent, San Diego, Calif.), pCRMP2(T514) (rabbit, 1:1000, Cell Signaling, Beverly, Mass.), or β-actin (mouse, 1:8000, Sigma-Aldrich, St. Louis, Mo.) as a loading control. Secondary antibodies (LI-COR) were incubated in TBST+0.02% SDS and visualized with the LI-COR Odyssey near infrared imaging system (Lincoln, NB).

| SMILES | CRMP2 phosphorylation at T514 |
| --- | --- |
| COC(=O)Nc1nc2ccc(C(=O)c3cccs3)cc2[nH]1 [nocodazole] | induce CRMP2 phosphorylation at T514 |
| CC(=O)O[C@H]1C(=O)[C@@]2(C)[C@H]([C@H](OC(=O)c3ccccc3)[C@]3(O)C[C@H](OC(=O)[C@H](O)[C@@H](NC(=O)c4ccccc4)c4ccccc4)C(C)=C1C3(C)C)[C@]1(OC(C)=O)CO[C@@H]1C[C@@H]2O [paclitaxel] | induce CRMP2 phosphorylation at T514 |
